The structures appear in SMILES notation.

By Kd is commonly meant the concentration at which binding is half-saturated. The low end stands for higher affinity, the high end for lower affinity.

The experiment deals with T1, POMK (Protein O-Mannose Kinase) (Danio rerio, UniProt Q5U3W1).
T1 construct: Purified Danio rerio POMK
In words: ligand-observed 1D 1H NMR titration (Man H1 peak intensity). In kind it is binding.

T1 sequence (Q5U3W1 whole entry): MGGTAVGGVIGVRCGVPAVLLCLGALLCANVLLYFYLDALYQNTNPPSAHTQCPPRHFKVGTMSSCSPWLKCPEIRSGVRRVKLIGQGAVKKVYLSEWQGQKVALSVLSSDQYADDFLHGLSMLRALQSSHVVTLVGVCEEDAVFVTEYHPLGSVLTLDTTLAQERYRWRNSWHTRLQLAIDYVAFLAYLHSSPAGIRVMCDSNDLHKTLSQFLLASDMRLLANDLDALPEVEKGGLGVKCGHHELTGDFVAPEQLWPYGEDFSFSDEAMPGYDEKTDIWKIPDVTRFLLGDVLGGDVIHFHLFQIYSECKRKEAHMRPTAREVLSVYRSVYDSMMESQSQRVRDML

Molecule `CC(=O)N[C@H]1[C@H](O[C@H]2[C@H](O)[C@@H](CO)O[C@@H](O[C@H]3[C@H](O)[C@H](O)[C@@H](Oc4ccc5c(C)cc(=O)oc5c4)O[C@@H]3COP(=O)(O)O)[C@@H]2NC(C)=O)O[C@H](CO)[C@H](O)[C@@H]1O` [GGMp-MU] gave a Kd of over 500 µM.

These data come from PMC7556876, “POMK regulates dystroglycan function via LARGE1-mediated elongation of matriglycan” (eLife, 2020).
